# Measured values as given in patent US20190345146A1, “NITROGEN CONTAINING BICYCLIC DERIVATIVES FOR TREATING PAIN AND PAIN RELATED CONDITIONS” (ESTEVE PHARMACEUTICALS, S.A., priority 2016, published 2019).
# Biological target: human α2δ-1 subunit of Cav2.2 calcium channel (Homo sapiens, UniProt P54289)
# Experiment: Binding assay to human α2δ-1 subunit of Cav2.2 calcium channel ([3H]-Gabapentin)
# Conditions: Table 1, human α2δ-1 enriched membranes, read-out: Ki(nM) alpha2delta Hum
# Protocol: • Binding assay to human α2δ-1 subunit of Cav2.2 calcium channel.
# Human α2δ-1 enriched membranes (2.5 μg) were incubated with 15 nM of radiolabeled [3H]-Gabapentin in assay buffer containing Hepes-KOH 10 mM, pH 7.4.
# (§1) NSB (non specific binding) was measured by adding 10 μM pregabalin. The binding of the test compound was measured at five different concentrations. After 60 min of incubation at 27° C., the binding reaction was terminated by filtering through Multiscreen GF/C (Millipore) presoaked in 0.5% polyethyleneimine in Vacuum Manifold Station, followed by 3 washes with ice-cold filtration buffer containing 50 mM Tris-HCl, pH 7.4.
# (§2) Filter plates were dried at 60° C. for 1 h and 30 μl of scintillation cocktail were added to each well before radioactivity reading.
# (§3) Readings were performed in a Trilux 1450 Microbeta radioactive counter (Perkin Elmer). • Binding assay to human norepinephrine transporter (NET).
# human α2δ-1 subunit of Cav2.2 calcium channel, sequence (P54289 25-1103): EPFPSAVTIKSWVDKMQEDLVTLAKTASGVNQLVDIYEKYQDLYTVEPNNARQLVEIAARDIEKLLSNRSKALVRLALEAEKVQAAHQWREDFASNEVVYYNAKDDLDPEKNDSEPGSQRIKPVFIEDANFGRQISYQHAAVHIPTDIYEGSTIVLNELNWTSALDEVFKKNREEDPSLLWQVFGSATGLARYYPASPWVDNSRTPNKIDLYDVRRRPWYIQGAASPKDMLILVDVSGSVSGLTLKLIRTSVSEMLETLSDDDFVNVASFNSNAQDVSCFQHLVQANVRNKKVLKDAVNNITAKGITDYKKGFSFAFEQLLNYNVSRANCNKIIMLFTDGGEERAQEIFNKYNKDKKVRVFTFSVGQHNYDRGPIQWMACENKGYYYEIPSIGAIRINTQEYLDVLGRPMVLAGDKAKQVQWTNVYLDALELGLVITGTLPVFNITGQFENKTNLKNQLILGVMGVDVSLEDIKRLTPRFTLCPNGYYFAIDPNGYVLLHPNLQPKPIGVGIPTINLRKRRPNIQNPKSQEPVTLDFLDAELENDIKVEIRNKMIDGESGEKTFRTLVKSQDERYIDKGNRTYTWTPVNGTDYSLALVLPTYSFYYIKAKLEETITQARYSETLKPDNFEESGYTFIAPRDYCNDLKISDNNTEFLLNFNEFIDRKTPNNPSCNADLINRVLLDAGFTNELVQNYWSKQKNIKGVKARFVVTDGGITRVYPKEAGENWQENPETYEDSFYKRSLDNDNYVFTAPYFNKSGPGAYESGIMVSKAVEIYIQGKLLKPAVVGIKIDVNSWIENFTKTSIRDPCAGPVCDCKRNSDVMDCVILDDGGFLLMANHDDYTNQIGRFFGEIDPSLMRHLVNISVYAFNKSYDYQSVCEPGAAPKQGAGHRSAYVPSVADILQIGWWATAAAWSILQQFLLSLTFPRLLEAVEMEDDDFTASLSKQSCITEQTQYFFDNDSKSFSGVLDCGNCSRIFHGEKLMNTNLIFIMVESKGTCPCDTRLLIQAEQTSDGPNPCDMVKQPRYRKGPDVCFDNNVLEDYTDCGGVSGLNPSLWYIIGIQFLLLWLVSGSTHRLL
row,SMILES,Ki [nM]
1,"CNCCC(OCc1cccc2ncccc12)c1cccs1 (stereo not shown) [Example 22, N-methyl-3-(quinolin-5-ylmethoxy)-3-(thiophen-2-yl)propan-1-amine]",≥ 3000
2,"CCNCC[C@@H](Oc1cccc2cnncc12)c1ccccc1 [Example 13, (R)-N-ethyl-3-phenyl-3-(phthalazin-5-yloxy)propan-1-amine]",500 to 3000
3,"CNCC[C@H](Oc1cccc2c1ccc(=O)n2C)c1cccs1 [Example 28, (S)-1-methyl-5-(3-(methylamino)-1-(thiophen-2-yl)propoxy)quinolin-2(1H)-one]",500 to 3000
4,"CCNCC[C@H](Oc1cccc2c(=O)n(C)cnc12)c1cccs1 [Example 34, (S)-8-(3-(ethylamino)-1-(thiophen-2-yl)propoxy)-3-methylquinazolin-4(3H)-one]",≥ 3000
5,"CCNCC[C@H](Oc1cccc2c(=O)n(C)ccc12)c1cccs1 [Example 35, (S)-5-(3-(ethylamino)-1-(thiophen-2-yl)propoxy)-2-methylisoquinolin-1(2H)-one]",500 to 3000
6,"CCNCC[C@H](Oc1cccc2ncn(C)c(=O)c12)c1cccs1 [Example 36, (S)-5-(3-(ethylamino)-1-(thiophen-2-yl)propoxy)-3-methylquinazolin-4(3H)-one]",≥ 3000
7,"CNCC[C@H](Oc1cccc2c1CCN(C)C2)c1cccs1 [Example 25, (S)—N-methyl-3-((2-methyl-1,2,3,4-tetrahydroisoquinolin-5-yl)oxy)-3-(thiophen-2-yl)propan-1-amine]",100 to 500
8,"CNCCC(Oc1cccc2c1CCN(C)C2)c1cccs1 (stereo not shown) [Example 2, N-methyl-3-((2-methyl-1,2,3,4-tetrahydroisoquinolin-5-yl)oxy)-3-(thiophen-2-yl)propan-1-amine]",< 100
9,"CNCCC(OCc1cccc2ccncc12)c1cccs1 (stereo not shown) [Example 20, 3-(Isoquinolin-8-ylmethoxy)-N-methyl-3-(thiophen-2-yl)propan-1-amine]",≥ 3000
10,"CNCC[C@@H](Oc1cccc2c1CCN(C)C2)c1cccs1 [Example 26, (R)—N-methyl-3-((2-methyl-1,2,3,4-tetrahydroisoquinolin-5-yl)oxy)-3-(thiophen-2-yl)propan-1-amine]",< 100
11,"CNCC[C@H](Oc1cccc2cnncc12)c1cccs1 [Example 5, (S)-N-methyl-3-(phthalazin-5-yloxy)-3-(thiophen-2-yl)propan-1-amine]",≥ 3000
12,"CNCCC(OCc1cccc2cnccc12)c1ccccc1 (stereo not shown) [Example 17, 3-(Isoquinolin-5-ylmethoxy)-N-methyl-3-phenylpropan-1-amine]",≥ 3000
13,"CNCCC(OCc1cccc2ccncc12)c1ccccc1 (stereo not shown) [Example 18, 3-(isoquinolin-8-ylmethoxy)-N-methyl-3-phenylpropan-1-amine]",≥ 3000
14,"CNCC[C@H](Oc1cccc2c1CCCN2C)c1cccs1 [Example 23, (S)—N-methyl-3-((1-methyl-1,2,3,4-tetrahydroquinolin-5-yl)oxy)-3-(thiophen-2-yl)propan-1-amine]",500 to 3000
15,"CNCCC(OCc1cccc2cnccc12)c1cccs1 (stereo not shown) [Example 21, 3-(isoquinolin-5-ylmethoxy)-N-methyl-3-(thiophen-2-yl)propan-1-amine]",≥ 3000
16,"CCNCC[C@H](Oc1cccc2ncncc12)c1cccs1 [Example 38, (S)-N-ethyl-3-(quinazolin-5-yloxy)-3-(thiophen-2-yl)propan-1-amine]",500 to 3000
17,"CNCCC(OCc1cccc2ncccc12)c1ccccc1 (stereo not shown) [Example 19, N-methyl-3-phenyl-3-(quinolin-5-ylmethoxy)propan-1-amine]",≥ 3000
18,"CCNCCC(Oc1cccc2cnncc12)c1ccccc1 (stereo not shown) [Example 11, N-ethyl-3-phenyl-3-(phthalazin-5-yloxy)propan-1-amine]",500 to 3000

# Further lines, results first:
row,Ki [nM],SMILES
1,100 to 500,"CNCC[C@@H](Oc1cccc2c1CCCN2C)c1cccs1 [Example 24, (R)—N-methyl-3-((1-methyl-1,2,3,4-tetrahydroquinolin-5-yl)oxy)-3-(thiophen-2-yl)propan-1-amine]"
2,100 to 500,"CNCCC(Oc1cccc2c(=O)n(C)cnc12)c1cccs1 (stereo not shown) [Example 8, 3-methyl-8-(3-(methylamino)-1-(thiophen-2-yl)propoxy)quinazolin-4(3H)-one]"
3,100 to 500,"CNCC[C@@H](Oc1cccc2c1ccc(=O)n2C)c1cccs1 [Example 29, (R)-1-methyl-5-(3-(methylamino)-1-(thiophen-2-yl)propoxy)quinolin-2(1H)-one]"
4,100 to 500,"CNCCC(Oc1cccc2c(=O)n(C)ccc12)c1cccs1 (stereo not shown) [Example 9, 2-methyl-5-(3-(methylamino)-1-(thiophen-2-yl)propoxy)isoquinolin-1(2H)-one]"
5,< 100,"CCNCC[C@@H](Oc1cccc2cnncc12)c1cccs1 [Example 14, (R)-N-ethyl-3-(phthalazin-5-yloxy)-3-(thiophen-2-yl)propan-1-amine]"
6,100 to 500,"CNCCC(Oc1cccc2ncn(C)c(=O)c12)c1cccs1 (stereo not shown) [Example 7, 3-methyl-5-(3-(methylamino)-1-(thiophen-2-yl)propoxy)quinazolin-4(3H)-one]"
7,100 to 500,"CNCC[C@H](Oc1cccc2ncncc12)c1cccs1 [Example 33, (S)-N-methyl-3-(quinazolin-5-yloxy)-3-(thiophen-2-yl)propan-1-amine]"
8,< 100,"CNCCC(Oc1cccc2cnncc12)c1cccs1 (stereo not shown) [Example 6, N-methyl-3-(phthalazin-5-yloxy)-3-(thiophen-2-yl)propan-1-amine]"
9,100 to 500,"CCNCC[C@@H](Oc1cccc2ncncc12)c1cccs1 [Example 39, (R)-N-ethyl-3-(quinazolin-5-yloxy)-3-(thiophen-2-yl)propan-1-amine]"
10,100 to 500,"CNCC[C@@H](Oc1cccc2ncn(C)c(=O)c12)c1ccsc1 [Example 43, (R)-3-methyl-5-(3-(methylamino)-1-(thiophen-3-yl)propoxyl)quinazolin-4(3H)-one]"
11,< 100,"CCNCC[C@@H](Oc1cccc2c(=O)n(C)ccc12)c1ccsc1 [Example 42, (R)-5-(3-(ethylamino)-1-(thiophen-3-yl)propoxy)-2-methylisoquinolin-1(2H)-one]"
12,100 to 500,"CNCCC(Oc1cccc2c1CCCN2C)c1cccs1 (stereo not shown) [Example 1, N-Methyl-3-((1-methyl-1,2,3,4-tetrahydroquinolin-5-yl)oxy)-3-(thiophen-2-yl)propan-1-amine]"
13,100 to 500,"CCNCC[C@@H](Oc1cc(C)cc2c(=O)n(C)cnc12)c1cccs1 [Example 44, (R)-8-(3-(ethylamino)-1-(thiophen-2-yl)propoxy)-3,6-dimethylquinazolin-4(3H)-one]"
14,< 100,"CCNCC[C@@H](Oc1cccc2ncncc12)c1ccsc1 [Example 40, (R)-N-ethyl-3-(quinazolin-5-yloxy)-3-(thiophen-3-yl)propan-1-amine]"
15,< 100,"CCNCCC(Oc1cccc2c1CCN(C)C2)c1cccs1 (stereo not shown) [Example 27, N-ethyl-3-((2-methyl-1,2,3,4-tetrahydroisoquinolin-5-yl)oxy)-3-(thiophen-2-yl)propan-1-amine]"
16,< 100,"CCNCC[C@@H](Oc1cccc2c(=O)n(C)ccc12)c1cccs1 [Example 31, (R)-5-(3-(ethylamino)-1-(thiophen-2-yl)propoxy)-2-methylisoquinolin-1(2H)-one]"
17,< 100,"CCNCC[C@@H](Oc1cccc2c(=O)n(C)cnc12)c1ccsc1 [Example 41, (R)-8-(3-(ethylamino)-1-(thiophen-3-yl)propoxy)-3-methylquinazolin-4(3H)-one]"
18,100 to 500,"CCNCC[C@@H](Oc1cccc2c(=O)n(C)cnc12)c1cccs1 [Example 32, (R)-8-(3-(ethylamino)-1-(thiophen-2-yl)propoxy)-3-methylquinazolin-4(3H)-one]"
19,100 to 500,"CCNCCC(Oc1cccc2cnncc12)c1cccs1 (stereo not shown) [Example 12, N-ethyl-3-(phthalazin-5-yloxy)-3-(thiophen-2-yl)propan-1-amine]"
20,100 to 500,"CNCC[C@@H](Oc1cc(F)cc2ncn(C)c(=O)c12)c1cccs1 [Example 45, (R)-7-fluoro-3-methyl-5-(3-(methylamino)-1-(thiophen-2-yl)propoxyl)quinazolin-4(3H)-one]"
21,< 100,"CCNCC[C@@H](Oc1cccc2ncn(C)c(=O)c12)c1cccs1 [Example 30, (R)-5-(3-(ethylamino)-1-(thiophen-2-yl)propoxy)-3-methylquinazolin-4(3H)-one]"
22,< 100,"CNCC[C@@H](Oc1cccc2ncncc12)c1cccs1 [Example 37, (R)-N-methyl-3-(quinazolin-5-yloxy)-3-(thiophen-2-yl)propan-1-amine]"
23,100 to 500,"CNCC[C@@H](Oc1cccc2cnncc12)c1cccs1 [Example 4, (R)—N-Methyl-3-(phthalazin-5-yloxy)-3-(thiophen-2-yl)propan-1-amine]"

# Same assay, conditions: Table 2, dual compounds, human α2δ-1 enriched membranes, read-out: Ki(nM) alpha2delta Hum
row,Ki [nM],SMILES
1,100 to 500,"CNCCC(Oc1cccc2c1CCCN2C)c1cccs1 (stereo not shown) [Example 1, N-Methyl-3-((1-methyl-1,2,3,4-tetrahydroquinolin-5-yl)oxy)-3-(thiophen-2-yl)propan-1-amine]"

# Biological target: human norepinephrine transporter (NET) (Homo sapiens, UniProt P23975)
# Experiment: Binding assay to human norepinephrine transporter (NET) ([3H]-Nisoxetin)
# Conditions: Table 2, dual compounds, human NET enriched membranes, read-out: Ki(nM) NET Hum
# Protocol: as §3
# Human norepinephrine transporter (NET) enriched membranes (5 μg) were incubated with 5 nM of radiolabeled [3H]-Nisoxetin in assay buffer containing 50 mM Tris-HCl, 120 mM NaCl, 5 mM KCl, pH 7.4.
# as §1, with “desipramine.” for “pregabalin.”, “min” for “min of”, “4°” for “27°”, “C.,” for “C., the”, “Tris-HCl, 0.9% NaCl,” for “Tris-HCl,”
# as §2
# Readings were performed in a Trilux 1450 Microbeta radioactive counter (Perkin Elmer).
# human norepinephrine transporter (NET), sequence (P23975 whole entry): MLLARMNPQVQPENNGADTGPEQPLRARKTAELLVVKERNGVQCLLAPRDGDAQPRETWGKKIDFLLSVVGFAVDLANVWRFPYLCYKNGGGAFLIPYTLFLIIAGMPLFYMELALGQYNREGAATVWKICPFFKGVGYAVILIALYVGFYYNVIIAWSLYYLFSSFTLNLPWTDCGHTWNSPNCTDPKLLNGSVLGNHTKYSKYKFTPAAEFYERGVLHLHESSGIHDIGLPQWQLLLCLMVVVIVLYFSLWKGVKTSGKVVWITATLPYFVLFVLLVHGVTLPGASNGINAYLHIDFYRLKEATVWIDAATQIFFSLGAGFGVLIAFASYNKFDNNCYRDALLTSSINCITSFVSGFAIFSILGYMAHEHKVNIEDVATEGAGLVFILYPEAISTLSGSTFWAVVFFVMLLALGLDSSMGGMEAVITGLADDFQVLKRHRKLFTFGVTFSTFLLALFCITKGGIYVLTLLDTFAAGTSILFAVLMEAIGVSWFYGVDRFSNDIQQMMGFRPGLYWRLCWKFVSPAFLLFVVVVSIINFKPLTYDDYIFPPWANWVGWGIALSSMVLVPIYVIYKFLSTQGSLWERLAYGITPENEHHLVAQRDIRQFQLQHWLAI
row,Ki [nM],SMILES
1,500 to 1000,"CNCCC(Oc1cccc2c1CCCN2C)c1cccs1 (stereo not shown) [Example 1, N-Methyl-3-((1-methyl-1,2,3,4-tetrahydroquinolin-5-yl)oxy)-3-(thiophen-2-yl)propan-1-amine]"
